Laboratory results: patent publication US10682353B2, “Varlitinib for use in the treatment of resistant or refractory cancer” (ASLAN Pharmaceuticals PTE LTD, priority 2015, dated 2020)

Columns and labels:
Format in all cases: in vivo, human
[1] = test system: stage IV cholangiocarcinoma EGFR positive (3+) cancer; assay: Example 1: Varlitinib 400 mg bi-daily monotherapy in a patient; conditions: after treatment cycle 6, Varlitinib 400 mg bi-daily monotherapy
[2] = test system: stage IV, extra-hepatic cholangiocarcinoma; assay: Example 2: Varlitinib 400 mg bi-daily combination therapy followed by monotherapy in a patient
Protocol: A person, stage IV, extra-hepatic cholangiocarcinoma, prior treatment: • Whipple • Radiotherapy • Gemzar/cisplatin for 6 months For the first 6 cycles, the patient received Varlitinib 400 mg BID continuously with cisplatin (80 mg/m^2 every 3 weeks) and capecitabine (1000 mg/m2 BID, 2 weeks on, 1 week off). […] In summary, the patient received varlitinib with chemo for 6 cycles and varlitinib monotherapy for another 4 cycles (3 weeks per cycle).

[3] = test system: intrahepatic cholangiocarcinoma, stage IV; assay: Example 3: Varlitinib 400 mg bi-daily orally and FOLFOX in a patient (ASLAN001-002SG study)
Source text: They received left hemihepatectomy followed by 6 cycles of adjuvant gemcitabine and cisplatin.

SMILES: C[C@@H]1COC(Nc2ccc3ncnc(Nc4ccc(OCc5nccs5)c(Cl)c4)c3c2)=N1 [Varlitinib, (R)—N4-[3-Chloro-4-(thiazol-2-ylmethoxy)-phenyl]-N6-(4-methyl-4,5,-dihydro-oxazol-2-yl)-quinazoline-4,6-diamine]
- tumour marker CA 19-9 ([1]; fell from ~900 U/ml): ~250 U/ml
- liver tumours decreased in size ([1]; one patient progressive after gemcitabine and cisplatin/5-FU): up to 23%
- reduction in tumour size (tumor scan) ([2]; end of cycle 8, varlitinib monotherapy after 6 cycles of combination with cisplatin and capecitabine): 87%
- image scan outcome based on RECIST ([2]; end of cycle 10, on varlitinib monotherapy, criterion >20% increase against nadir): disease progression
- reduction in tumor size as the best response from baseline ([3]; Varlitinib 400 mg BID with mFOLFOX6 for 9 cycles, then 9 cycles varlitinib monotherapy (2 weeks per cycle), one patient): 53%
- latest tumor assessment (response) ([3]; after cycle 18, 9 cycles Varlitinib 400 mg BID and mFOLFOX6, then 9 cycles varlitinib monotherapy): partial response
